Assay results as given in patent US9309225B2, “N-((1-benzyl-1H-1,2,3-triazol-4-yl)methyl)arylamide compounds as potential anticancer agents and a process for the preparation thereof” (COUNCIL OF SCIENTIFIC & INDUSTRIAL RESEARCH, priority 2013, dated 2016).

Tests used:
Format in all cases: cell-based
HCT-15 = assay: NCI sixty human tumor cell line screen, Colon panel; settings: HCT-15, Colon, NCI protocol
Procedure: (§1) The in vitro anticancer activity studies for these N-((1-benzyl-1H-1,2,3-triazol-4-yl)methyl) arylamide analogues were carried out at the National Cancer Institute, USA.
(§2) The N-((1-benzyl-1H-1,2,3-triazol-4-yl)methyl)arylamide analogues have been tested at NCI, USA, against sixty human tumor cell lines derived from nine cancer types (leukemia, non-small cell lung cancer, colon cancer, CNS cancer, melanoma cancer, ovarian cancer, renal cancer, prostate cancer and breast cancer). For these compounds results are expressed as growth inhibition (GI50) values as per NCI protocol.

HCC-2998 = assay: as above; settings: HCC-2998, Colon, NCI protocol
Procedure: as §1, §2

A549 = assay: IC50 of compounds and E7010 against A549 cell line
Source text: (§3) In the present investigation, an attempt has been made, in view of the biological importance of both 2-anilino nicotinyl structure and 1,2,3-triazoles group. […] Introduction of triazole group on 2-anilino nicotinyl moiety resulted that there is enhancement of biological activity of representative compounds (1a, 1b, 1c, 1d, 1f, 1g, 1i, 1k, 6b and 6g) compare with E7010. Biological data of representative compounds has been provided in Table 1. • (Novel sulfonamides as potential, systemically active antitumor agents. Yoshino, H.; Ueda, N.; Niijima, J.; Sugumi, H.; Kotake, Y.; Koyanagi, N.; Yoshimatsu, K.; Asada, M.; Watanabe, T.; Nagasu, T. J. Med. Chem. 1992, 35, 2496-2497)

IGROV1 = assay: NCI sixty human tumor cell line screen, Ovarian panel; settings: IGROV-1, NCI protocol
Procedure: as §1, §2

UACC-257 = assay: NCI sixty human tumor cell line screen, Melanoma panel; settings: UACC-257, Melanoma, NCI protocol
Procedure: as §1, §2

NCI-H23 = assay: NCI sixty human tumor cell line screen, Non-small-cell-lung panel; settings: NCI protocol
Procedure: as §1, §2

K-562 = assay: NCI sixty human tumor cell line screen, Leukemia panel; settings: K562, K-562, Leukemia, NCI protocol
Procedure: as §1, §2

MOLT-4 = assay: as above; settings: MOLT-4, Leukemia, NCI protocol
Procedure: as §1, §2

SR = assay: as above; settings: NCI protocol
Procedure: as §1, §2

HL-60(TB) = assay: as above; settings: NCI protocol
Procedure: as §1, §2

RPMI-8226 = assay: as above; settings: RPMI-8226, Leukemia, NCI protocol
Procedure: as §1, §2

CCRF-CEM = assay: as above; settings: NCI protocol
Procedure: as §1, §2

HS 578T = assay: NCI sixty human tumor cell line screen, Breast panel; settings: NCI protocol
Procedure: as §1, §2

786-0 = assay: NCI sixty human tumor cell line screen, Renal panel; settings: 786-0, Renal, NCI protocol
Procedure: as §1, §2

OVCAR-5 = assay: NCI sixty human tumor cell line screen, Ovarian panel; settings: OVCAR-5, Ovarian, NCI protocol
Procedure: as §1, §2

MALME-3M = assay: NCI sixty human tumor cell line screen, Melanoma panel; settings: NCI protocol
Procedure: as §1, §2

HOP-92 = assay: NCI sixty human tumor cell line screen, Non-small-cell-lung panel; settings: HOP-92, Non-small-cell-lung, NCI protocol
Procedure: as §1, §2

MCF7 = assay: NCI sixty human tumor cell line screen, Breast panel; settings: NCI protocol
Procedure: as §1, §2

MCF-7 = assay: IC50 of compounds and E7010 against MCF-7 cell line
Source text: as §3

[1] = Homo sapiens, A549, A549 cell line
[2] = Homo sapiens, MCF7, MCF-7 cell line

Row | Compound | GI50 (HCT-15) [µM] | GI50 (HCC-2998) [µM] | IC50 (A549; A549 cell line) [µM] | IC50 (A549; [1]) [µM] | GI50 (IGROV1) [µM] | GI50 (UACC-257) [µM] | GI50 (NCI-H23) [µM] | GI50 (K-562) [µM] | GI50 (MOLT-4) [µM] | GI50 (SR) [µM] | GI50 (HL-60(TB)) [µM] | GI50 (RPMI-8226) [µM] | GI50 (CCRF-CEM) [µM] | GI50 (HS 578T) [µM] | GI50 (786-0) [µM] | GI50 (OVCAR-5) [µM] | GI50 (MALME-3M) [µM] | GI50 (HOP-92) [µM] | GI50 (MCF7) [µM] | IC50 (MCF-7; [2]) [µM] | further results
1 | O=C(NCc1cn(Cc2cccc(Oc3ccccc3)c2)nn1)c1cccnc1Nc1ccccc1 [Compound 1a, N-((1-(3-Phenoxybenzyl)-1H-1,2,3-triazol-4-yl)methyl)-2-(phenylamino)nicotinamide] | 3.81 | 3.7 | 1.54 | 1.25 to 3.98 | 30.7 | 1.42 | 3.73 | 3.69 | 3.74 | 2.56 | 3.74 | 3.61 | 3.34 | 30.9 | 23.2 |  |  |  |  |  | 
2 | O=C(NCc1cn(Cc2cccc(Oc3ccccc3)c2)nn1)c1cccnc1Nc1ccc(F)cc1 [Compound 1b, 2-(4-Fluorophenylamino)-N-((1-(3-phenoxybenzyl)-1H-1,2,3-triazol4-yl)methyl)nicotinamide] |  |  | 1.69 | 1.25 to 3.98 | 5.89 | 6.87 | 29.9 |  |  |  |  |  |  | 5.9 | 5.59 | 4.23 | 15.1 | 10.7 |  |  | 
3 | COc1ccc(Nc2ncccc2C(=O)NCc2cn(Cc3cccc(Oc4ccccc4)c3)nn2)cc1 [Compound 1e, 2-(4-Methoxyphenylamino)-N-((1-(3-phenoxybenzyl)-1H-1,2,3-triazol-4-yl)methyl) nicotinamide] | 3.93 | 2.53 |  |  |  | 4.82 | 3.45 | 3.48 | 2.91 |  | 2.66 | 4.84 | 3.8 |  | 6.73 | ≥ 100 | 3.8 | 5.67 |  |  | 
4 | COc1ccc(Nc2ncccc2C(=O)NCc2cn(Cc3cccc(Oc4ccccc4)c3)nn2)c(OC)c1 [Compound 1g, 2-(2,4-Dimethoxyphenylamino)-N-((1-(3-phenoxybenzyl)-1H-1,2,3-triazol-4-yl)methyl) nicotinamide] | 2.89 | 3.33 | 1.57 | 1.25 to 3.98 | 5.96 |  | 2.24 | 0.75 | 3.65 |  | 2.21 | 3.03 | 1.2 | 2.94 | 4.06 | 8.34 | 4.07 |  | 0.65 | 0.74 to 2.51 | IC50 (MCF-7; MCF-7 cell line): 0.74 µM
5 | COc1cc(Nc2ncccc2C(=O)NCc2cn(Cc3cccc(Oc4ccccc4)c3)nn2)cc(OC)c1 [Compound 1i, 2-(3,5-Dimethoxyphenylamino)-N-((1-(3-phenoxybenzyl)-1H-1,2,3-triazol-4-yl)methyl) nicotinamide] | 3.89 | 9.6 | 1.93 | 1.25 to 3.98 |  | 4.86 | 6.22 | 5.05 | 4.85 |  | 3.97 | 5.25 | 4.19 |  | 6.73 | ≥ 100 | 5.81 | 4.67 |  | 0.74 to 2.51 | IC50 (MCF-7; MCF-7 cell line): 0.93 µM
6 | O=C(NCc1cn(Cc2cccc(Oc3ccccc3)c2)nn1)c1cccnc1NCc1ccc(Cl)cc1 [Compound 1k, 2-(4-Chlorobenzylamino)-N-((1-(3-phenoxybenzyl)-1H-1,2,3-triazol-4-yl)methyl) nicotinamide] | 3.39 | 4.17 | 1.79 | 1.25 to 3.98 | 9.03 | 3.83 |  | 3.24 | 3.28 | 3.31 | 3.39 | 3.12 | 3.05 | 2.72 |  | 5.62 | 5.69 | 4.23 | 2.99 |  | 
